{"source": "paper PMC10847213", "about": "(Clinical Pharmacokinetics, 2023)", "key": {"UGT": {"test_system": "UGT", "assay": "Effect of multiple-dose lorlatinib on the pharmacokinetics of acetaminophen", "assay_type": "in vivo, human"}, "CYP2B6 [1]": {"test_system": "CYP2B6", "assay": "Effect of multiple-dose lorlatinib on the pharmacokinetics of bupropion", "assay_type": "in vivo, human"}, "CYP1A2": {"test_system": "CYP1A2", "details": "in vitro; cited from earlier work"}, "[2]": {"test_system": "human pregnane X receptor (PXR)", "details": "cited from earlier work"}, "bone marrow of rats": {"test_system": "bone marrow of rats", "details": "cited from earlier work"}, "CYP3A4/5 [3]": {"test_system": "CYP3A4/5", "details": "lorlatinib with itraconazole; cited from earlier work"}, "CYP2D6": {"test_system": "CYP2D6", "details": "in vitro; cited from earlier work"}, "P-glycoprotein (P-gp) [4]": {"target": "P-glycoprotein (P-gp) (Homo sapiens, UniProt P08183)", "sequence (P08183 whole entry)": "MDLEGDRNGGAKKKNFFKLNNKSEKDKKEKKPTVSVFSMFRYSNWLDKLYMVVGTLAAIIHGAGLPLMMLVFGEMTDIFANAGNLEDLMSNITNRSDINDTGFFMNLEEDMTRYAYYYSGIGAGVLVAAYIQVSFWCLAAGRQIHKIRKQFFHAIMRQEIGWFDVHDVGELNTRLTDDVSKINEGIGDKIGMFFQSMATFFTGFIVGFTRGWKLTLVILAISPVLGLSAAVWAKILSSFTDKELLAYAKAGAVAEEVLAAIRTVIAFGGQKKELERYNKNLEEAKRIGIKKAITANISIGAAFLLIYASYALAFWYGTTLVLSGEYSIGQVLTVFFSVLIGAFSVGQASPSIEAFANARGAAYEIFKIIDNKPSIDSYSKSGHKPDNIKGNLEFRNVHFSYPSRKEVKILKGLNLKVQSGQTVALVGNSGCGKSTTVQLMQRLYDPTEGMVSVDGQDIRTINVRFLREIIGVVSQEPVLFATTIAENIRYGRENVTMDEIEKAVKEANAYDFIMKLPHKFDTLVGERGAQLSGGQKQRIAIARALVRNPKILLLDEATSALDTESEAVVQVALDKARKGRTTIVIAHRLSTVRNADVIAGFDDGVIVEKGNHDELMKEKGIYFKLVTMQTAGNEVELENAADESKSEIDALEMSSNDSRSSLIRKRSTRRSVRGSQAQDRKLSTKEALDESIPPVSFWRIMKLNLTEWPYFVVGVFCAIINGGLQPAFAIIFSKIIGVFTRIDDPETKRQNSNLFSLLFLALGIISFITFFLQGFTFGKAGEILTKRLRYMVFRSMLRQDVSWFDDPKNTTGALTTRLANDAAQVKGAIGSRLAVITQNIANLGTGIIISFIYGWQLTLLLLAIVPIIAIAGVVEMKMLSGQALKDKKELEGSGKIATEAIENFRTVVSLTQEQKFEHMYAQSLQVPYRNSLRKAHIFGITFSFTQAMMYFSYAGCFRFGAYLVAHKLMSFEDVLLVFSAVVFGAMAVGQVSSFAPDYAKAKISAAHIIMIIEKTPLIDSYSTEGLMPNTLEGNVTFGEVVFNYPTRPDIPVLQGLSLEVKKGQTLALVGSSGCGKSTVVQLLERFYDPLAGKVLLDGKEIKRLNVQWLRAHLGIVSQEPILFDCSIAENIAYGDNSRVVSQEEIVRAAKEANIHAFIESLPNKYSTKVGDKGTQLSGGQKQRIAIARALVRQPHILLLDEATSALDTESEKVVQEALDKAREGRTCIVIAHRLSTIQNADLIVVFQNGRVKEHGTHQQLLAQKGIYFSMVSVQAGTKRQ", "assay": "Effect of multiple-dose lorlatinib on the pharmacokinetics of fexofenadine", "assay_type": "in vivo", "details": "lorlatinib 100 mg QD at steady state; probe fexofenadine"}, "plasma proteins": {"test_system": "plasma proteins", "details": "cited from earlier work"}, "CYP2C9 [5]": {"test_system": "CYP2C9", "details": "in vitro; cited from earlier work"}, "CYP2C8": {"test_system": "CYP2C8", "details": "in vitro; cited from earlier work"}, "CYP3A4/5 [6]": {"test_system": "CYP3A4/5", "details": "cited from earlier work"}, "CYP3A4/5 [7]": {"test_system": "CYP3A4/5", "details": "cited from earlier work", "remark": "listed apart in the source"}, "[8]": {"test_system": "human lymphoblastoid TK6 cells", "details": "cited from earlier work"}, "CYP2C9 [9]": {"test_system": "CYP2C9", "assay": "Effect of multiple-dose lorlatinib on the pharmacokinetics of tolbutamide", "assay_type": "in vivo, human", "details": "lorlatinib 100 mg QD at steady state; probe tolbutamide"}, "CYP2B6 [10]": {"test_system": "CYP2B6", "details": "in vitro; cited from earlier work"}, "CYP3A4/5 [11]": {"test_system": "CYP3A4/5", "details": "cited from earlier work", "remark": "listed apart in the source"}, "CYP3A4/5 [12]": {"test_system": "CYP3A4/5", "details": "lorlatinib with modafinil; cited from earlier work"}, "CYP2C19": {"test_system": "CYP2C19", "details": "in vitro; cited from earlier work"}, "P-glycoprotein (P-gp) [13]": {"test_system": "P-glycoprotein (P-gp)", "details": "MDCK II-MDR1 cells, substrate digoxin; cited from earlier work"}, "[14]": {"details": "after oral administration; cited from earlier work"}, "bacterial assay": {"test_system": "bacterial assay", "details": "in vitro bacterial assay; cited from earlier work"}, "[15]": {"details": "acetaminophen with lorlatinib 100 mg QD vs acetaminophen alone"}, "[16]": {"details": "single oral 2-mg dose of midazolam with lorlatinib 150 mg QD"}}, "note": "“Also recorded” adds a separate entry of the source. Read-outs that look alike come from different tables or passages of the source."}
{"smiles": "CC(=O)Nc1ccc(O)cc1", "note": "[Acetaminophen, acetaminophen]", "values": [{"measurement": "Decrease in AUC∞", "setting": "UGT; [15]", "result": 45, "unit": "%"}, {"measurement": "Decrease in Cmax", "setting": "UGT; [15]", "result": 28, "unit": "%"}]}
{"smiles": "CC(NC(C)(C)C)C(=O)c1cccc(Cl)c1", "note": "(stereo not shown) [Bupropion, bupropion]", "values": [{"measurement": "Decrease in Cmax", "setting": "CYP2B6 [1]; bupropion with lorlatinib 100 mg QD vs bupropion alone", "result": 27, "unit": "%"}]}
{"smiles": "C[C@H]1Oc2cc(cnc2N)-c2c(nn(C)c2C#N)CN(C)C(=O)c2ccc(F)cc21", "note": "[Lorlatinib, (10R)-7-amino-12-fluoro-2,10,16-trimethyl-15-oxo-10,15,16,17-tetrahydro-2H-8,4-(metheno)pyrazolo[4,3-h][2,5,11]-benzoxadiazacyclotetradecine-3-carbonitrile]", "values": [{"measurement": "Inhibition of CYP1A2", "setting": "CYP1A2", "result": "do not inhibit"}, {"measurement": "PXR activation", "setting": "[2]", "result": "activate PXR"}, {"measurement": "Aneugenicity in vivo", "setting": "bone marrow of rats", "result": "aneugenic"}, {"measurement": "Increase in AUC∞", "setting": "CYP3A4/5 [3]", "result": 42, "unit": "%"}, {"measurement": "Increase in Cmax", "setting": "CYP3A4/5 [3]", "result": 24, "unit": "%"}, {"measurement": "Inhibition of CYP2D6", "setting": "CYP2D6", "result": "do not inhibit"}, {"measurement": "Inducer classification, P-gp", "setting": "P-glycoprotein (P-gp) [4]", "result": "moderate (≥ 50% to < 80%)"}, {"measurement": "Binding to plasma proteins", "setting": "plasma proteins", "result": 66, "unit": "%"}, {"measurement": "Inducer classification, CYP2B6", "setting": "CYP2B6 [1]; lorlatinib 100 mg QD at steady state, probe bupropion", "result": "weak (≥ 20% to < 50%)"}, {"measurement": "Inhibition of CYP2C9", "setting": "CYP2C9 [5]", "result": "do not inhibit"}, {"measurement": "Inhibition of CYP2C8", "setting": "CYP2C8", "result": "do not inhibit"}, {"measurement": "Effect on CYP3A4/5", "setting": "CYP3A4/5 [6]", "result": "time-dependent inhibitor and inducer"}, {"measurement": "Transaminase / liver enzyme levels", "setting": "CYP3A4/5 [7]; coadministration of lorlatinib with rifampin", "result": "elevated liver enzyme levels; also recorded: rapid elevations in transaminase values"}, {"measurement": "Reduction in Cmax", "setting": "CYP3A4/5 [7]; lorlatinib with rifampin", "result": 76, "unit": "%"}, {"measurement": "Reduction in mean AUC∞", "setting": "CYP3A4/5 [7]; lorlatinib with rifampin", "result": 85, "unit": "%"}, {"measurement": "Aneugenicity in vitro", "setting": "[8]", "result": "aneugenic"}, {"measurement": "Inducer classification, CYP2C9", "setting": "CYP2C9 [9]", "result": "weak (≥ 20% to < 50%)"}, {"measurement": "Inhibition of CYP2B6", "setting": "CYP2B6 [10]", "result": "do not inhibit"}, {"measurement": "Inducer classification, CYP3A4/5", "setting": "CYP3A4/5 [11]; after multiple dosing, probe midazolam", "result": "moderate (≥ 50% to < 80%)"}, {"measurement": "Reduction in AUC∞", "setting": "CYP3A4/5 [12]", "result": 23, "unit": "%"}, {"measurement": "Reduction in Cmax", "setting": "CYP3A4/5 [12]", "result": 22, "unit": "%"}, {"measurement": "Inhibition of CYP2C19", "setting": "CYP2C19", "result": "do not inhibit"}, {"measurement": "Inhibition of P-gp efflux", "setting": "P-glycoprotein (P-gp) [13]", "result": "inhibit"}, {"measurement": "Bioavailability", "setting": "[14]", "result": 81, "unit": "%"}, {"measurement": "Inducer classification, UGT", "setting": "UGT; lorlatinib 100 mg QD at steady state, probe acetaminophen", "result": "weak (≥ 20% to < 50%)"}, {"measurement": "Mutagenicity", "setting": "bacterial assay", "result": "not mutagenic"}]}
{"smiles": "Cc1ncc2n1-c1ccc(Cl)cc1C(c1ccccc1F)=NC2", "note": "[midazolam]", "values": [{"measurement": "Decrease in AUC∞", "setting": "CYP3A4/5 [11]; [16]", "result": 64, "unit": "%"}, {"measurement": "Decrease in Cmax", "setting": "CYP3A4/5 [11]; [16]", "result": 50, "unit": "%"}]}
